The CC50 is the concentration giving 50% cytotoxicity. A word on the EC50: it is the concentration needed to bring the measured effect to its halfway point. As a reminder, the EC90 is the concentration at which the effect reaches the 90% level.

Consider seven molecules from ChEMBL document CHEMBL3616454, “Synthesis and antiviral activity of some new bis-1,3-thiazole derivatives” (Eur J Med Chem, 2015).

Converted amounts (≈) assume the structure as drawn. Some results are limits rather than exact numbers.

The nature of data set [1]: Selectivity index, ratio of CC50 for MDCK cells by neutral red method to EC50 for Influenza A virus (A/California/07/2009(H1N1) virus by neutral red method. The class given is toxicity, cell-based. The conditions noted are these: dog, read-out: Ratio CC50/EC50.
Data set [2] can be described thus: Cytotoxicity against MDCK cells assessed as cell viability by visual assay. The conditions noted are these: dog. In kind it is cell-based, Canis lupus familiaris.
A short description of data set [3]: Antiviral activity against Influenza A virus (A/California/07/2009(H1N1) infected in MDCK cell line assessed as reduction of virus induced cytopathic effect by visual assay. The class given is functional, cell-based. (Cytopathic effects are the visible damage that an infection or toxin causes in cultured cells.)
Data set [4] in a line: Selectivity index, ratio of CC50 for MDCK cells by visual method to EC50 for Influenza A virus (A/California/07/2009(H1N1) virus by visual method. The conditions noted are these: dog, read-out: Ratio CC50/EC50. In kind it is toxicity, cell-based.
A short description of data set [5]: Cytotoxicity against MDCK cells assessed as cell viability by neutral red assay. The class given is cell-based, Canis lupus familiaris. Conditions: dog.
Data set [6] can be described thus: Antiviral activity against Influenza A virus (A/California/07/2009(H1N1)) infected in MDCK cell line assessed as reduction of virus induced cytopathic effect by neutral red assay. The class given is functional, cell-based.
Data set [7] concerns Hepatitis C virus. Kind of data set: Antiviral activity against Hepatitis C virus 1b CON1 infected in human Huh/NeoET cells expressing luciferase assessed as reduction of virus induced cytopathic effect by luciferse reporter assay. In kind it is functional, cell-based, Hepacivirus hominis. The conditions noted are these: genotype 1b Con1, Huh/NeoET.
Data set [8] in a line: Cytotoxicity against human Huh/NeoET cells assessed as cell viability by cytoTox1 cell proliferation assay. In kind it is cell-based.
The nature of data set [9]: Selectivity index, ratio of CC50 for luciferase expressing Huh/NeoET cells to EC50 for Hepatitis C virus 1b CON1. The conditions noted are these: human, read-out: Ratio CC50/EC50. In kind it is toxicity, cell-based.
Data set [10] can be described thus: Selectivity index, ratio of CC50 for human HuH7.5 cells to EC50 for HCV 1b/2a (Con-1/JFH-1). The arrangement: species or system Huh-7.
Data set [11] in a line: Cytotoxicity against human HuH7 cells assessed as cell viability by cytoTox1 cell proliferation assay. In kind it is cell-based, Huh-7.
The test system of data set [12] is Hepatitis C virus. Kind of data set: Antiviral activity against HCV 1a H77 infected in human Huh7.5 cells assessed as reduction of virus induced cytopathic effect by qRT-PCR. In kind it is functional, cell-based, Hepacivirus hominis. Conditions: genotype 1a H77, Huh-7.
The test system of data set [13] is Hepatitis C virus. The data set can be described thus: Antiviral activity against HCV 2a (JFH1) infected in human Huh7 cells assessed as reduction of virus induced cytopathic effect by luciferase reporter assay. In kind it is functional, organism-based, Hepacivirus hominis. Conditions: Huh-7.
The nature of data set [14]: Selectivity index, ratio of CC50 for human HuH7 cells to EC50 for Hepatitis C virus 1b CON1. The class given is toxicity, cell-based, Huh-7. Conditions: read-out: Ratio CC50/EC50.
Data set [15] in a line: Selectivity index, ratio of CC50 for human HuH7 cells to EC50 for HCV 2a (JFH1). The arrangement: species or system Huh-7.
Data set [16] relates to Hepatitis C virus. Kind of data set: Antiviral activity against HCV 1a/2a (H77/JFH1) infected in human Huh7.5 cells assessed as reduction of virus induced cytopathic effect by luciferase reporter assay. In kind it is functional, organism-based, Hepacivirus hominis. Conditions: Huh-7.
A short description of data set [17]: Selectivity index, ratio of CC50 for human HuH7 cells to EC50 for HCV 1a/2a (H77/JFH1). The arrangement: species or system Huh-7.
Data set [18] can be described thus: Cytotoxicity against human Huh7.5 cells assessed as cell viability by cytoTox1 cell proliferation assay. The class given is cell-based, Huh-7.5.
Data set [19] concerns Hepatitis C virus. The data set can be described thus: Antiviral activity against HCV 1b/2a (Con-1/JFH-1) infected in human Huh7.5 cells assessed as reduction of virus induced cytopathic effect by luciferase reporter assay. The class given is functional, organism-based, Hepacivirus hominis. The conditions noted are these: Huh-7.
Data set [20] relates to Hepatitis C virus. Kind of data set: Antiviral activity against HCV 1b Con1 infected in human Huh7.5 cells assessed as reduction of virus induced cytopathic effect by qRT-PCR. In kind it is functional, cell-based, Hepacivirus hominis. Conditions: genotype 1b Con1, Huh-7.
For data set [21], the system named is Hepatitis C virus. Kind of data set: Antiviral activity against HCV 2a/2a (J6/JFH1) infected in human Huh7.5 cells assessed as reduction of virus induced cytopathic effect by luciferase reporter assay. In kind it is functional, organism-based, Hepacivirus hominis. Conditions: Huh-7.
Data set [22] can be described thus: Selectivity index, ratio of CC50 for human HuH7.5 cells to EC50 for HCV 2a/2a (J6/JFH1). The arrangement: species or system Huh-7.
Data set [23] is described as follows: Selectivity index, ratio of CC50 for human HuH7 cells to EC50 for Hepatitis C virus 1a H77. The class given is toxicity, cell-based, Huh-7. Conditions: read-out: Ratio CC50/EC50.

Regarding `NC(=O)c1ncn([C@@H]2O[C@H](CO)[C@@H](O)[C@H]2O)n1` [RIBAVIRIN], the selectivity ratio in data set [1] is more than 2; in [4] it was more than 32. For the same molecule, the CC50 in data set [2] and in data set [5] was more than 320 µg/mL each time. In addition, the concentration for a half-maximal effect (EC50) was found to be 24 µg/mL (≈ 98.3 µM) in [3] and 16 µg/mL (≈ 65.5 µM) in data set [6].

Take `CCOC(=O)C1=C(C)N(c2ccccc2)/C(=C2\S/C(=N/c3nc(-c4c(C)n(C)n(-c5ccccc5)c4=O)cs3)N(c3ccccc3)C2=O)S1`: the selectivity ratio in data set [1] is more than 1.1; in data set [4], more than 1.5. Moreover, the CC50 in data set [2] and in [5] was more than 100 µg/mL each time. The EC50 worked out at 68 µg/mL (≈ 96.2 µM) in data set [3] and 92 µg/mL (≈ 130 µM) in data set [6].

Take `COc1ccc(N2N=C(C(C)=O)S/C2=C2/S/C(=N/c3nc(-c4c(C)n(C)n(-c5ccccc5)c4=O)cs3)N(c3ccccc3)C2=O)cc1`: in the data set on Hepatitis C virus [7], the EC50 is 2.8 µM and the EC90 stood at 15.5 µM. Also, the CC50 in data set [8] is more than 20 µM. The selectivity ratio in [9] is more than 7.

Regarding `CC(=O)C1=NN(c2ccc(C)cc2)/C(=C2\S/C(=N/c3nc(-c4c(C)n(C)n(-c5ccccc5)c4=O)cs3)N(c3ccccc3)C2=O)S1`, in the data set with Hepatitis C virus [7], the EC50 was determined as 1.04 µM and the EC90 was determined as 4.76 µM. Further, the CC50 in [8] is more than 20 µM. Further, the selectivity ratio in data set [9] is more than 19.

Consider `CC(=O)C1=NN(c2ccccc2)/C(=C2\S/C(=N/c3nc(-c4c(C)n(C)n(-c5ccccc5)c4=O)cs3)N(c3ccccc3)C2=O)S1`, for which the “Ratio CC50/EC50” value is more than 18 in data set [10], more than 1 in [15], more than 1 in data set [17] and more than 13 in data set [22]. The EC50 in the data set on Hepatitis C virus [7] is 0.56 µM; in the data set with Hepatitis C virus [12] it was more than 20 µM; in the data set on Hepatitis C virus [13], 17.7 µM; with Hepatitis C virus [16] it was 13.6 µM; in the data set with Hepatitis C virus [19], 1.09 µM; in the data set with Hepatitis C virus [20], 0.46 µM. In addition, the EC50 in the data set on Hepatitis C virus [21] was 1.54 µM. Further, the EC90 in the data set with Hepatitis C virus [7] was 1.81 µM; in the data set with Hepatitis C virus [12], more than 20 µM; in the data set on Hepatitis C virus [13], more than 20 µM; in the data set with Hepatitis C virus [16], more than 20 µM; in the data set on Hepatitis C virus [19] it was more than 20 µM; in the data set on Hepatitis C virus [20], more than 20 µM. For the same molecule, the EC90 with Hepatitis C virus [21] is more than 20 µM. The CC50 in [11], in data set [18] and in data set [8] was more than 20 µM each time. The selectivity ratio in data set [14] is more than 43; in [9], more than 36; in data set [23], 1.

As to `CC(=O)C1=NN(c2ccc(Cl)cc2)/C(=C2\S/C(=N/c3nc(-c4c(C)n(C)n(-c5ccccc5)c4=O)cs3)N(c3ccccc3)C2=O)S1`, in the data set with Hepatitis C virus [7], the EC50 worked out at 1.12 µM and the 90% effect concentration (EC90) is 14.4 µM. Also, the CC50 in [8] was more than 20 µM. Also, the selectivity ratio in [9] was more than 18.

For the molecule `Cc1c(-c2csc(/N=C3/S/C(=C4/SCC(=O)N4c4ccccc4)C(=O)N3c3ccccc3)n2)c(=O)n(-c2ccccc2)n1C`, the selectivity ratio in [1] was more than 4.3; in data set [4], more than 4.2; in [9] it was more than 2. In addition, the EC50 with Hepatitis C virus [7] came out at 12.7 µM; in data set [3], 23 µg/mL (≈ 36.1 µM); in data set [6], 23 µg/mL (≈ 36.1 µM). Further, in the data set on Hepatitis C virus [7], the EC90 was more than 20 µM. In addition, the CC50 was more than 100 µg/mL in data set [2], more than 20 µM in [8] and more than 100 µg/mL in data set [5].
